From the NIST ThermoML archive (doi:10.1021/acs.jced.8b00713)

Details: Liquid; for viscosity: Vibrating wire viscometry; for mass density: Vibrating tube method

FC(F)(F)/C=C\C(F)(F)F [(Z)-1,1,1,4,4,4-hexafluorobut-2-ene]
Details | mass density [kg/m3] | viscosity [mPa·s]
253.14 K, 15000 kPa | – | 0.7477
253.14 K, 20000 kPa | – | 0.7916
253.15 K, 100 kPa | – | 0.6315
253.15 K, 5000 kPa | – | 0.6695
253.15 K, 25000 kPa | – | 0.8337
253.15 K, 30100 kPa | – | 0.871
253.16 K, 1000 kPa | – | 0.6387
253.16 K, 2000 kPa | – | 0.647
253.16 K, 10000 kPa | – | 0.7114
253.16 K, 40000 kPa | – | 0.9576
263.14 K, 2000 kPa | – | 0.5721
263.14 K, 5000 kPa | – | 0.5916
263.14 K, 30000 kPa | – | 0.7644
263.15 K, 100 kPa | – | 0.5599
263.15 K, 1000 kPa | – | 0.5656
263.15 K, 10000 kPa | – | 0.6247
263.15 K, 15000 kPa | – | 0.6579
263.15 K, 20000 kPa | – | 0.6906
263.16 K, 25000 kPa | – | 0.7286
263.16 K, 40000 kPa | – | 0.8352
273.13 K, 100 kPa | – | 0.493
273.13 K, 10000 kPa | – | 0.5526
273.14 K, 1000 kPa | – | 0.4975
273.14 K, 15000 kPa | – | 0.584
273.14 K, 25000 kPa | – | 0.643
273.14 K, 29700 kPa | – | 0.6776
273.15 K, 5000 kPa | – | 0.5227
273.15 K, 20000 kPa | – | 0.6131
273.16 K, 2000 kPa | – | 0.5035
273.16 K, 40000 kPa | – | 0.7422
283.14 K, 15000 kPa | – | 0.5206
283.14 K, 20000 kPa | – | 0.547
283.15 K, 100 kPa | 1402.57 | –
283.15 K, 1000 kPa | 1405.16 | –
283.15 K, 2000 kPa | 1408.09 | 0.446
283.15 K, 5000 kPa | 1416.4 | 0.462
283.15 K, 10000 kPa | 1429.39 | 0.49
283.15 K, 15000 kPa | 1441.21 | –
283.15 K, 20000 kPa | 1452.25 | –
283.15 K, 25000 kPa | 1462.46 | 0.5731
283.15 K, 30000 kPa | 1472 | 0.6009
283.15 K, 40000 kPa | 1489.73 | 0.6578
283.15 K, 50000 kPa | 1505.53 | –
283.15 K, 60000 kPa | 1520.01 | –
283.15 K, 80000 kPa | 1545.15 | –
283.15 K, 100000 kPa | 1566.76 | –
283.16 K, 100 kPa | – | 0.4357
283.17 K, 1000 kPa | – | 0.4423
293.15 K, 100 kPa | 1377.12 | –
293.15 K, 1000 kPa | 1380.09 | 0.3924
293.15 K, 2000 kPa | 1383.27 | 0.3978
293.15 K, 5000 kPa | 1392.34 | –
293.15 K, 10000 kPa | 1406.41 | 0.4385
293.15 K, 15000 kPa | 1419.13 | –
293.15 K, 15100 kPa | – | 0.4651
293.15 K, 20000 kPa | 1430.86 | –
293.15 K, 25000 kPa | 1441.76 | 0.5151
293.15 K, 30000 kPa | 1451.97 | 0.5414
293.15 K, 40000 kPa | – | 0.5919
293.15 K, 60000 kPa | 1501.97 | –
293.15 K, 80010 kPa | 1528.17 | –
293.15 K, 99990 kPa | 1550.16 | –
293.16 K, 200 kPa | – | 0.388
293.16 K, 5000 kPa | – | 0.4135
293.16 K, 20000 kPa | – | 0.4904
293.16 K, 40000 kPa | 1470.38 | –
293.16 K, 50000 kPa | 1486.98 | –
303.14 K, 20000 kPa | – | 0.441
303.15 K, 100 kPa | 1351.47 | –
303.15 K, 200 kPa | – | 0.3454
303.15 K, 1000 kPa | 1354.72 | 0.3494
303.15 K, 5000 kPa | – | 0.3692
303.15 K, 10000 kPa | 1383.63 | –
303.15 K, 15000 kPa | 1397.49 | 0.4173
303.15 K, 25000 kPa | 1421.76 | 0.4647
303.15 K, 30000 kPa | 1432.55 | 0.4879
303.15 K, 40000 kPa | – | 0.5357
303.15 K, 50000 kPa | 1469.43 | –
303.15 K, 60000 kPa | 1485.09 | –
303.15 K, 80000 kPa | 1512.19 | –
303.15 K, 100010 kPa | 1535.09 | –
303.16 K, 2000 kPa | 1358.24 | 0.3548
303.16 K, 5000 kPa | 1368.33 | –
303.16 K, 20000 kPa | 1410.02 | –
303.16 K, 40000 kPa | 1452.02 | –
303.17 K, 10000 kPa | – | 0.3938
313.14 K, 1000 kPa | 1327.46 | –
313.14 K, 100010 kPa | 1519.55 | –
313.15 K, 500 kPa | 1325.41 | 0.31
313.15 K, 1000 kPa | – | 0.3121
313.15 K, 2000 kPa | 1331.4 | 0.3173
313.15 K, 5000 kPa | 1342.64 | 0.3312
313.15 K, 10000 kPa | 1359.5 | –
313.15 K, 15000 kPa | 1374.49 | 0.3776
313.15 K, 20000 kPa | 1388.16 | 0.3989
313.15 K, 25000 kPa | 1400.64 | 0.421
313.15 K, 30000 kPa | 1412.04 | 0.4431
313.15 K, 40000 kPa | 1432.78 | 0.4866
313.15 K, 80010 kPa | 1495.94 | –
313.16 K, 10000 kPa | – | 0.3543
313.16 K, 50000 kPa | 1451.06 | –
313.16 K, 60000 kPa | 1467.37 | –
323.14 K, 5000 kPa | 1317.21 | –
323.14 K, 10000 kPa | 1335.83 | –
323.14 K, 20000 kPa | – | 0.3632
323.15 K, 500 kPa | 1297.83 | –
323.15 K, 1000 kPa | 1300.12 | –
323.15 K, 5000 kPa | – | 0.2981
323.15 K, 10000 kPa | – | 0.322
323.15 K, 15000 kPa | 1352.25 | 0.3425
323.15 K, 20000 kPa | 1366.96 | –
323.15 K, 25000 kPa | 1380.35 | 0.3839
323.15 K, 30000 kPa | 1392.69 | 0.4043
323.15 K, 40000 kPa | 1414.6 | –
323.15 K, 50000 kPa | 1433.91 | –
323.15 K, 80010 kPa | 1480.77 | –
323.15 K, 100010 kPa | 1505.41 | –
323.16 K, 500 kPa | – | 0.2776
323.16 K, 1000 kPa | – | 0.28
323.16 K, 2000 kPa | 1304.59 | 0.2844
323.16 K, 40000 kPa | – | 0.445
323.16 K, 60000 kPa | 1451.12 | –
333.14 K, 500 kPa | – | 0.2497
333.15 K, 1000 kPa | 1271.96 | 0.2521
333.15 K, 5000 kPa | 1291.31 | 0.2705
333.15 K, 10000 kPa | – | 0.2917
333.15 K, 15000 kPa | – | 0.3126
333.15 K, 20000 kPa | 1346 | 0.3321
333.15 K, 25000 kPa | 1360.41 | 0.3512
333.15 K, 30000 kPa | 1373.57 | 0.3741
333.15 K, 40000 kPa | 1396.93 | 0.41
333.15 K, 50000 kPa | 1417.34 | –
333.15 K, 60000 kPa | 1435.25 | –
333.15 K, 80000 kPa | 1466.47 | –
333.15 K, 100000 kPa | 1492.09 | –
333.16 K, 500 kPa | 1269.32 | –
333.16 K, 2000 kPa | 1277.07 | 0.2568
333.16 K, 10000 kPa | 1312.03 | –
333.16 K, 15000 kPa | 1330.02 | –
343.15 K, 1000 kPa | – | 0.2262
343.15 K, 2000 kPa | 1248.57 | 0.2308
343.15 K, 5000 kPa | – | 0.2443
343.15 K, 10000 kPa | – | 0.2663
343.15 K, 15000 kPa | 1307.63 | 0.2864
343.15 K, 20000 kPa | – | 0.3054
343.15 K, 25000 kPa | – | 0.3246
343.15 K, 30000 kPa | – | 0.3429
343.15 K, 40000 kPa | 1379.44 | 0.3794
343.15 K, 50000 kPa | 1400.93 | –
343.15 K, 60000 kPa | 1419.91 | –
343.15 K, 80000 kPa | 1452.33 | –
343.15 K, 100000 kPa | 1478.79 | –
343.16 K, 500 kPa | 1239.61 | 0.224
343.16 K, 1000 kPa | 1242.66 | –
343.16 K, 5000 kPa | 1264.73 | –
343.16 K, 10000 kPa | 1287.86 | –
343.16 K, 20000 kPa | 1324.98 | –
343.16 K, 25000 kPa | 1340.52 | –
343.16 K, 30000 kPa | 1354.59 | –
353.14 K, 2000 kPa | – | 0.2104
353.15 K, 1000 kPa | 1211.33 | –
353.15 K, 2000 kPa | 1218.18 | –
353.15 K, 5000 kPa | – | 0.221
353.15 K, 10000 kPa | – | 0.2419
353.15 K, 15000 kPa | 1284.42 | 0.2623
353.15 K, 20000 kPa | – | 0.2801
353.15 K, 25000 kPa | 1320.02 | –
353.15 K, 30000 kPa | 1335.13 | 0.3157
353.15 K, 40000 kPa | 1361.5 | 0.3504
353.15 K, 50000 kPa | 1384.21 | –
353.15 K, 60000 kPa | 1404.05 | –
353.15 K, 80010 kPa | 1438.01 | –
353.15 K, 100000 kPa | 1465.73 | –
353.16 K, 1000 kPa | – | 0.2057
353.16 K, 5000 kPa | 1236.75 | –
353.16 K, 10000 kPa | 1262.64 | –
353.16 K, 20000 kPa | 1303.28 | –
353.16 K, 25000 kPa | – | 0.2983
363.15 K, 1000 kPa | 1177.46 | –
363.15 K, 10000 kPa | 1236.32 | –
363.15 K, 25000 kPa | 1298.98 | –
363.15 K, 30000 kPa | 1315.14 | –
363.15 K, 60000 kPa | 1387.96 | –
363.15 K, 79990 kPa | 1423.19 | –
363.16 K, 2000 kPa | 1185.52 | –
363.16 K, 5000 kPa | 1207.05 | –
363.16 K, 15000 kPa | 1260.38 | –
363.16 K, 20000 kPa | 1280.92 | –
363.16 K, 40000 kPa | 1343.17 | –
363.16 K, 50000 kPa | 1367.09 | –
363.16 K, 100000 kPa | 1451.81 | –
373.15 K, 1000 kPa | 1140.74 | –
373.15 K, 5000 kPa | 1175.78 | –
373.15 K, 10020 kPa | 1209.06 | –
373.15 K, 15000 kPa | 1235.47 | –
373.15 K, 25000 kPa | 1277.24 | –
373.15 K, 30000 kPa | 1294.44 | –
373.15 K, 50000 kPa | 1349.23 | –
373.15 K, 60000 kPa | 1370.99 | –
373.15 K, 80010 kPa | 1407.73 | –
373.15 K, 100010 kPa | 1437.36 | –
373.16 K, 2000 kPa | 1150.47 | –
373.16 K, 20020 kPa | 1257.86 | –
373.16 K, 40000 kPa | 1324.14 | –
